“Also recorded” adds a separate entry of the source.
Tests used:
[1] = test system: mTORC1 signaling; assay: mSc-TOSI mTORC1 signaling assay (FACS) in K562 cells; format: cell-based, human
Method: (A) Schematic representation of the mScarlet-I mTOR Signaling Indicator (mSc-TOSI) degradation under mTORC1 signaling. (B) mSc-TOSI fluorescence intensity in bulk populations of K562 cells stably expressing the mTORC1 signaling reporter. Where indicated, cells were treated with the indicated concentration of mTOR inhibitor for 24 hours before FACS analysis.
(A) Schematic representation of the mScarlet-I mTOR Signaling Indicator (mSc-TOSI) degradation under mTORC1 signaling. (B) mSc-TOSI fluorescence intensity in homozygous single cell-derived K562 clones harboring the MTOR-F2108L mutation with or without targeted CAR integration. Single cell-derived K562 clones were isolated in methylcellulose-based semi-solid RPMI media supplemented with 100 μM ouabain. Where indicated, cells were treated with the indicated concentration of mTOR inhibitor for 24 hours before FACS analysis.
Active mTORC1 signaling results in rapid phosphorylation of the mSc-TOSI phosphodegron by S6K, ubiquitination, and degradation by the proteasome while its inhibition stabilizes the reporter.
The percentage of fluorescent cells was quantified using a BD LSRII flow cytometer and 1×10^5 cells were analyzed for each condition. […] For mTORC1 signaling assays, cells were treated with the indicated concentration of rapamycin or AZD8055 for 24 hours before analysis. FACS sorting was performed using a BD FACS Aria Fusion flow cytometer for the saturation prime editing experiment and 5×10^5 cells were sorted for each condition. Flow cytometric data visualization and analysis were performed using FlowJo™ software (Tree Star).
We then adapted a fluorescent mTORC1 signaling indicator^34 (mSc-TOSI) to assess the impact of rapamycin on mTORC1 signaling after targeted transgene integration to the MTOR locus. Active mTORC1 signaling results in rapid phosphorylation of the mSc-TOSI phosphodegron by S6K, ubiquitination, and degradation by the proteasome while its inhibition stabilizes the reporter^34 (FIG. 5A). We treated bulk populations of cells harboring the MTOR-F2108L mutation with or without targeted therapeutic transgene integration at the MTOR locus with different concentrations of rapamycin and AZD8055, a second-generation mTOR inhibitor.

[2] = test system: K562 cells; assay: K562 cell growth in the presence of rapamycin; format: cell-based, human
Method: (A) Prime editing and small indels quantification at MTOR as determined by BEAT and TIDE analysis from Sanger sequencing. K562 cells stably expressing the mSc-TOSI reporter were transfected with 0.75 μg of pCMV-PEmax vector, 0.25 μg of epegRNA (tevopreQ1) vector, and 0.1 μg of nick sgRNA vector. Genomic DNA was harvested 3 days post-transfection (before selection) and cells were treated (rapamycin) or not (vehicle) with 0.5 μM rapamycin until all non-resistant cells were eliminated.
K562 cells were obtained from the ATCC (CCL-243) and NALM6 cells stably transduced to express a FLUC-T2A-RFP-IRES-Puro reporter gene cassette (Biosettia). K562 and NALM6 cells were maintained at 37° C. under 5% CO2 in RPMI medium supplemented with 10% FBS, penicillin-streptomycin, and GlutaMAX. Cells were routinely tested for the absence of mycoplasma contamination. Rapamycin (Cayman Chemicals, Cat 53123-88-9) was dissolved at 10 mg/mL in DMSO, working dilutions were prepared in water and stored at −20° C. AZD8055 ([…] Technologies) was dissolved at 10 mM in DMSO, working dilutions were prepared in water and stored at −20° C. DMSO alone was diluted in water and used as vehicle control. Ouabain octahydrate (Sigma) was dissolved at […] in hot water, working dilutions were prepared in water and stored at −20° C. K562 cells (2×10^5 cells/transfection) were transfected using a Lonza 4D Nucleofector™ with a SF nucleofection kit (Lonza) following manufacturer's recommendations with the indicated DNA concentrations. Cells were treated with the indicated concentration of rapamycin 3 days post-nucleofection until all non-resistant cells were eliminated. For the isolation of single cell-derived clones, simultaneous coselection and cloning was performed in methylcellulose-based semi-solid RPMI medium supplemented with 100 μM ouabain for 10 days.
We then designed epegRNAs to validate the new MTOR-F2108 mutations individually. […] These observations confirmed that the five new mutations identified by saturation prime editing conferred resistance to rapamycin.

[3] = test system: metastatic anaplastic thyroid carcinoma; conditions: patient with metastatic anaplastic thyroid carcinoma; cited from earlier work
[4] = test system: MTOR locus; assay: F2108L edited alleles in CD3+ T cells after rapamycin selection, TIDER; format: cell-based, human; conditions: 2 μg dsDNA donor, after rapamycin selection 15 days
Source text: (A) Strategy for the CRISPR-driven insertion of the F2108L mutation to the MTOR locus using a linear double-stranded DNA (dsDNA) donor. (B) Schematic representation of the SpCas9 target site and the dsDNA donor sequence harboring the F2108L and PAM mutations (WT sequence: 5′ portion corresponds to SEQ ID NO: 45 and 3′ portion corresponds to SEQ ID NO: 46; G49 donor: 5′ portion corresponds to SEQ ID NO: 47 and 3′ portion corresponds to SEQ ID NO: 48). […] The percentage of edited alleles was quantified by TIDER after selection.
Receptor dimerization is induced with rapamycin. […] HA, homology arm. PA, polyadenylation signal. EGFP, enhanced green fluorescent protein. 2A self-cleaving peptide.
dsDNA donors were produced as described previously^24. The donor sequences were cloned into a cloning vector and PCR amplification (25 cycles) was performed using Kapa-HiFi polymerase. DNA purification was performed by solid-phase reversible immobilization using AMPure XP (Beckman Coulter) magnetic beads. […]
Genomic DNA was extracted with QuickExtract DNA extraction solution (EpiCentre) following manufacturer's recommendations. […] Sanger sequencing was performed on PCR amplicons to quantify the percentage of edited alleles using TIDE and TIDER^28,29. […]

[5] = test system: MTOR locus; assay: Transgene knock-in at MTOR in CD3+ T cells, FACS quantification; format: cell-based, human
Source text: (A) Strategy for CRISPR-driven mScarlet-I gene knock-in to the MTOR locus using a linear double-stranded DNA (dsDNA) donor. […] The percentage of cells expressing the mScarlet-I reporter was quantified by FACS after selection. HA, homology arm. PA, polyadenylation signal. EGFP, enhanced green fluorescent protein. 2A self-cleaving peptide.
(A) Strategy for the CRISPR-driven CAR-2A-EGFP gene knock-in to the MTOR locus using a linear double-stranded DNA (dsDNA) donor. […] The percentage of cells expressing the EGFP reporter was quantified by FACS after selection. HA; homology arm. PA; polyadenylation signal. EGFP; enhanced green fluorescent protein. 2A self-cleaving peptide.
The percentage of cells expressing the EGFP reporter was quantified by FACS after selection. HA, homology arm. PA, polyadenylation signal. EGFP, enhanced green fluorescent protein. 2A self-cleaving peptide.
dsDNA donors were produced as described previously^24. The donor sequences were cloned into a cloning vector and PCR amplification (25 cycles) was performed using Kapa-HiFi polymerase. DNA purification was performed by solid-phase reversible immobilization using AMPure XP (Beckman Coulter) magnetic beads. For ribonucleoprotein complex (RNP) formulation, 100 pmols of sgRNAs (IDT) were mixed with 0.8 μL of 100 mg/mL polyglutamic acid (Sigma) and 50 pmols of SpCas9 nuclease (IDT), as previously described^27. The RNP mix was incubated at 37° C. for 10 minutes and the dsDNA donors were added to the mix and incubated at room temperature for 5 minutes before transfection. Primary CD3^+ T cells (1×10^6 cells/transfection) were transfected using a Lonza 4D Nucleofector™ with a P3 nucleofection kit (Lonza) following manufacturer's recommendations with the indicated DNA concentrations. CD3+ T cells were resuspended in 80 μL media without IL-2 directly after nucleofection and incubated at 37° C. for 15 minutes before transfer into culture media plates. For AAV6 transduction, CD3+ T cells were resuspended in 80 μL media directly after nucleofection and AAV6 vectors were added. Cells were incubated at 37° C. for 8 hours at high cell density before transfer into culture media plates.
The percentage of fluorescent cells was quantified using a BD LSRII flow cytometer and 1×10^5 cells were analyzed for each condition. For antibody staining, K562 cells were incubated with Fc receptor block (eBioscience Cat 16-9161-73) for 20 minutes on ice with PBS and 3% human serum (Sigma). Anti-human CD34 Alexa Fluor 488-conjugated antibody clone QBEnd10 (R and D systems Cat FAB7227G) and anti-human CD52 FITC-conjugated antibody clone HI186 were used for RQR8 and CD52 quantification, respectively. For mTORC1 signaling assays, cells were treated with the indicated concentration of rapamycin or AZD8055 for 24 hours before analysis. […]

[6] = test system: MTOR locus; assay: Transgene knock-in at MTOR in K562 cells, FACS quantification; format: cell-based, human; conditions: Rapamycin-treated K562 cells, FACS with antibody staining
Method: (A) Strategy for the CRISPR-driven CAR-2A-EGFP gene knock-in to the MTOR locus using a plasmid donor. (B) K562 cells were transfected with 0.5 μg of SpCas9-sgRNA-expressing plasmid and 1 μg of donor plasmid. Cells were treated with 0.5 μM rapamycin 3 days post-transfection until all non-resistant cells were eliminated. The percentage of cells expressing the EGFP reporter was quantified by FACS after selection. HA; homology arm. PA; polyadenylation signal. EGFP; enhanced green fluorescent protein. 2A self-cleaving peptide.
(A) Strategy for the CRISPR-driven RQR8 gene knock-in to the MTOR locus using a plasmid donor. (B) K562 cells were transfected with 0.5 μg of SpCas9-sgRNA-expressing plasmid and 1 μg of donor plasmid harboring. […] The percentage of cells expressing the RQR8 epitope marker was quantified by FACS after selection using an Alexa Fluor 488-conjugated anti-human CD34 antibody. […] (D) Same as in B, but the percentage of cells expressing CD52 was quantified using a FITC-conjugated anti-human CD52 antibody. […]
The percentage of fluorescent cells was quantified using a BD LSRII flow cytometer and 1×10^5 cells were analyzed for each condition. […] Anti-human CD34 Alexa Fluor 488-conjugated antibody clone QBEnd10 (R and D systems Cat FAB7227G) and anti-human CD52 FITC-conjugated antibody clone HI186 were used for RQR8 and CD52 quantification, respectively. […]

In the case of `CO[C@H]1C[C@@H]2CC[C@@H](C)[C@@](O)(O2)C(=O)C(=O)N2CCCC[C@H]2C(=O)O[C@H]([C@H](C)C[C@@H]2CC[C@@H](O)[C@H](OC)C2)CC(=O)[C@H](C)/C=C(\C)[C@@H](O)[C@@H](OC)C(=O)[C@H](C)C[C@H](C)/C=C/C=C/C=C/1C` [rapamycin, Rapamycin], the mTORC1 signaling ([1]; K562 cells after prime editing (F2108L) and selection, different concentrations of rapamycin) is reported as “remained functional”, the mTORC1 signaling ([1]; K562 with F2108L mutation) is reported as “complete rapamycin resistance” and the mTORC1 signaling ([1]; K562 with F2108V and F2108K) is reported as “low levels of signaling”. The mTORC1 signaling ([1]; K562 with F21081, F2108M, and F2108G) was “intermediate levels of signaling”, the mTORC1 signaling ([1]; K562 without epegRNA (pUC19) and with silent F2108F mutation) was “complete mTORC1 signaling inhibition” and the mTORC1 signaling ([1]; MTOR-F2108L homozygous K562 clones with or without CAR integration, rapamycin treatment) was “remained completely functional”. For the same molecule, the mTORC1 signaling ([1]; adenine base edited K562 cells, in the presence of rapamycin) was “very low levels of mTORC1 signaling”, the mTORC1 signaling ([1]; bulk K562 cells harboring MTOR-F2108L with or without transgene integration, 50 nM to 5 000 nM rapamycin, 24 hours) was “functional mTORC1 signaling; also recorded: slight mTORC1 signaling decrease” and the “resistance of cells to rapamycin” value ([2]; ABE8e-targeted K562 cells) was “partial resistance”. The cell growth ([2]; K562 cells harboring MTOR-F2108 substitutions, 0.5 μM rapamycin) was “grew robustly” and the “resistance of cells to rapamycin” value ([2]; K562 cells with silent F2108F mutation, 0.5 μM rapamycin) was “no resistance”.
For `CO[C@H]1C[C@@H]2CC[C@@H](C)[C@@](O)(O2)C(=O)C(=O)N2CCCC[C@H]2C(=O)O[C@H]([C@H](C)C[C@@H]2CC[C@@H](OCCO)[C@H](OC)C2)CC(=O)[C@H](C)/C=C(\C)[C@@H](O)[C@@H](OC)C(=O)[C@H](C)C[C@H](C)/C=C/C=C/C=C/1C` [everolimus], the “response duration before relapse” value [3] is given as 18 month.
In the case of `COc1ccc(-c2ccc3c(N4CCOC[C@@H]4C)nc(N4CCOC[C@@H]4C)nc3n2)cc1CO` [AZD8055], the “sensitivity of mTORC1 signaling to inhibitor” value ([1]; CRISPR-engineered K562 cells harboring MTOR-F2108L, 24 hours) is reported as “remained sensitive”.
For “G49: gRNA, MTOR-Intron 45, target AGGTAGGATCTTCAGGCTCC (SEQ ID NO: 6); used as SpCas9 RNP with donor (listed as DNA, chemistry not given here; listed as Homo sapiens)”, the “alleles harboring the F2108L mutation” value [4] was “up to 63%”, the “alleles harboring the PAM mutation” value [4] was ≤ 69% and the “percentage of CD3+ T cells expressing the mScarlet-I reporter” value (“percentage” below) ([5]; 1 μg dsDNA donor, after rapamycin selection 8 days) was 21%. For the same molecule, the “percentage” value ([5]; 1 μg dsDNA donor, without selection) was 11%, the “percentage” value ([5]; 2 μg dsDNA donor, after rapamycin selection 8 days) was 31% and the “percentage” value ([5]; 2 μg dsDNA donor, without selection) was 18%.
For “RQR8: 136-amino-acid epitope-based marker/suicide gene targeted to MTOR with plasmid donor (SEQ ID NO: 26)”, the transgene expression [6] was “higher transgene expression”.

From patent publication US20240352487A1, “MTOR -TARGETED MODIFICATION AND USES THEREOF” (UNIVERSITÉ LAVAL, priority 2021, published 2024)
